Measured values published in patent US6291507A, “Chemical compounds” (Astrazeneca UK Limited, priority 1998, dated 2001).

Molecular target: T1, hMCP-1 receptor (MCP-1 receptor B, CCR2B) (Homo sapiens, UniProt P41597)
T1 construct: expressed in transfected cells; host or cells: CHO-K1 (clone 7, CHO-CCR2B), membrane fragments
T1 sequence (P41597 1-360 isoform P41597-2): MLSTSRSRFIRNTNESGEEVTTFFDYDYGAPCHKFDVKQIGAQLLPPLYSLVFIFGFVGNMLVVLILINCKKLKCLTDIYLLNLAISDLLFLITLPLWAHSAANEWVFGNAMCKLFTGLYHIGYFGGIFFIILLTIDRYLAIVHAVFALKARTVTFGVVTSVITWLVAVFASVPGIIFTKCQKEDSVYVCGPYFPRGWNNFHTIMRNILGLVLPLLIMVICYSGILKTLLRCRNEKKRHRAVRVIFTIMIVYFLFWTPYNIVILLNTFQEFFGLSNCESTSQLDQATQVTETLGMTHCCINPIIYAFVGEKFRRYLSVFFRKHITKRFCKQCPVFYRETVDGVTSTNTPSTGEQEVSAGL
Assay: hMCP-1 receptor-binding assay
Conditions: competition with 100 pM 125I-labelled MCP-1; CHO-CCR2B cell membranes; 0.1-200 μM, eight point dose-response curves in duplicate
From the text: a) hMCP-1 Receptor-binding Assay
The MCP-1 receptor B (CCR2B) cDNA was cloned by PCR from THP-1 cell RNA using suitable oligonucleotide primers based on the published MCP-1 receptor sequences (Charo et al., 1994, Proc. Natl. Acad. Sci. USA, 91, 2752). The resulting PCR products were cloned into vector PCR-II™ (InVitrogen, San Diego, Calif.). Error free CCR2B cDNA was subcloned as a Hind III-Not I fragment into the eukaryotic expression vector pCDNA3 (InVitrogen) to generate pCDNA3/CC-CKR2A and pCDNA3/CCR2B respectively.
Linearised pCDNA3/CCR2B DNA was transfected into CHO-KI cells by calcium phosphate precipitation (Wigler et al., 1979, Cell, 16, 777). Transfected cells were selected by the addition of Geneticin Sulphate (G418, Gibco BRL) at 1 mg/ml, 24 hours after the cells had been transfected. Preparation of RNA and Northern blotting were carried out as described previously (Needham et al., 1995, Prot. Express. Purific., 6, 134). CHO-K1 clone 7 (CHO-CCR2B) was identified as the highest MCP-1 receptor B expressor.
CHO-CCR2B cells were grown in DMEM supplemented with 10% foetal calf serum, 2 mM glutamine, lx Non-Essential Amino Acids, 1× Hypoxanthine and Thymidine Supplement and Penicillin-Streptomycin (at 50 μg streptomycin/ml; Gibco BRL). […]

IC50: 400 nM
Compound: Cc1c2c(n(Cc3ccc(Cl)c(Cl)c3)c1C(=O)O)CCCC2=O [Example 4a, 1-(3,4-Dichlorobenzyl)-3-methyl-4-oxo-4,5,6,7-tetrahydroindole-2-carboxylicAcid]
